US20140287923A1, “METHOD FOR ENHANCING CROP YIELDS BY APPLICATION OF TREHALOSE” (Stoller Enterprises, Inc., priority 2012, published 2014)

Assays:
Assay type in all cases: in vivo
[1] = tested on: Field Corn, cultivar Asgrow 7371; experiment: Foliar trehalose on field corn yield, cultivar Asgrow 7371; conditions: trehalose 100 grams per acre foliar, 4 and 5 weeks after V16 stage
Excerpt: Field Corn, cultivar Asgrow 7371, was twice treated foliarly before harvest with an aqueous solution of trehalose at the rate of 100 grams of trehalose per acre, at 4 weeks after the V16 stage of growth, and once again foliarly at the same rate at 5 weeks after the V16 stage of growth.

[2] = tested on: Field corn, Cultivar Dekalb C6805; experiment: Foliar trehalose on field corn yield, cultivar Dekalb C6805; conditions: for Yield of field corn (bushels per acre): control 155; for Weight of 1,000 kernels (grams): control 261
Description: Field corn, Cultivar Dekalb C6805, was treated foliarly with an aqueous solution of trehalose at the rate of 100 grams per acre, either at the […] stage of growth or 3 weeks before the […] stage of growth, in southern Texas. Field corn yields were increased with this cultivar from 155 bushels per acre to an unprecedented 337 bushels per acre for this locale, characterized by hot, windy climate and poor soils and high levels of pests including disease and insects. Seed weights of the corn kernels were increased.

[3] = tested on: Potato, cultivar Eva; experiment: Yield of Eva potato treated foliarly with trehalose 4 weeks before harvest; conditions: for pounds per graded size #4 (>10 ounces): control 0.0; for pounds per graded size #1 (0 to 4 ounces): control 0.8; for pounds per graded size #2 (>4 ounces) / pounds per graded size #3 (>6 ounces): control 6.8; for pounds Total: control 14.4
[4] = tested on: Potatoes, cultivar Eva; experiment: Reducing sugar content of potato tubers after foliar trehalose, cultivar Eva; conditions: for Reducing Sugar Content of Tubers (absorbance at 570 nm): 100 grams/acre foliar, n = 16
Description: Potatoes, cultivar Eva in Pennsylvania, were treated either 4 or 2 weeks before harvest with a foliar application of trehalose at the rate of 100 grams per acre. The potatoes were harvested and shipped to College Station, Texas for analysis of reducing sugars. […] (Table 4).

[5] = tested on: Potatoes, cultivar Snowden; experiment: Reducing sugar content of potato tubers after foliar trehalose, cultivar Snowden; conditions: 4 or 2 weeks before harvest, inversely proportional to the dose of trehalose
Description: Potatoes, cultivar Snowden in Wisconsin, were treated either 4 or 2 weeks before harvest with a foliar application of trehalose at the rate of 100 grams per acre. The potatoes were harvested and shipped to College Station, Tex. for analysis of reducing sugars.

[6] = tested on: Sugar Beets; experiment: Foliar trehalose on sugar beet yield and quality
Excerpt: Sugar Beets were foliarly treated with Trehalose at the rate of 300 grams per acre in Yuma Colo.

[7] = tested on: Sugar Cane; experiment: Trehalose on sugar per acre from sugar cane; conditions: 4 weeks before harvest
Description: Sugar Cane, grown in southern Texas was treated 4 weeks before harvest with an aqueous solution of Trehalose at the rate of 450 grams per acre, gave an extra 897 pounds of sugar from sugar cane production.

[8] = tested on: winter wheat; experiment: Foliar trehalose on yield of winter wheat; conditions: 100 g/a Foliar, 4 weeks before harvest; control 0%; highly significant
Description: Wheat, grown in Ontario Canada, was treated foliarly with an aqueous solution of trehalose at the rate of 100 grams per acre, 4 weeks before harvest.

[9] = 100 grams per acre foliar at the V16 stage of growth
[10] = 100 grams per acre foliar, 3 wk prior to V16 growth stage

OC[C@H]1O[C@H](O[C@H]2O[C@H](CO)[C@@H](O)[C@H](O)[C@H]2O)[C@H](O)[C@@H](O)[C@@H]1O [Trehalose, trehalose]
Yield increase by treatment of trehalose [1]: up to 125%
Yield of field corn (bushels per acre) ([1]; Cultivar 7371, control 103 bu/acre): 231 bu/acre
Weight of 1,000 kernels (grams) ([1]; Cultivar 7371, control 288 grams): 368 grams
Seed weights of the corn kernels ([2]; 100 grams per acre foliar): increased
Yield of field corn (bushels per acre) [2, 9]: 311 bushels per acre
Weight of 1,000 kernels (grams) [2, 9]: 286 grams
Yield of field corn (bushels per acre) [2, 10]: 327 bushels per acre
Weight of 1,000 kernels (grams) [2, 10]: 294 grams
Field corn yield ([2]; 100 grams per acre foliar, V16 or 3 weeks before V16, increased from 155): 337 bushels per acre
Potato yield ([3]; 100 grams per acre foliar): increased yields
pounds per graded size #4 (>10 ounces) ([3]; Trehalose 25 g foliar): 0.0 pounds
pounds per graded size #1 (0 to 4 ounces) ([3]; Trehalose 25 g foliar): 1.1 pounds
pounds per graded size #2 (>4 ounces) ([3]; Trehalose 25 g foliar): 7.2 pounds
pounds per graded size #3 (>6 ounces) ([3]; Trehalose 25 g foliar): 8.6 pounds
pounds Total ([3]; Trehalose 25 g foliar): 16.9 pounds
pounds per graded size #4 (>10 ounces) ([3]; Trehalose 50 g foliar): 0.0 pounds
pounds per graded size #1 (0 to 4 ounces) ([3]; Trehalose 50 g foliar): 0.9 pounds
pounds per graded size #2 (>4 ounces) ([3]; Trehalose 50 g foliar): 7.0 pounds
pounds per graded size #3 (>6 ounces) ([3]; Trehalose 50 g foliar): 8.3 pounds
pounds Total ([3]; Trehalose 50 g foliar): 16.2 pounds
pounds per graded size #4 (>10 ounces) ([3]; Trehalose 100 g foliar): 0.4 pounds
pounds per graded size #1 (0 to 4 ounces) ([3]; Trehalose 100 g foliar): 0.8 pounds
pounds per graded size #2 (>4 ounces) ([3]; Trehalose 100 g foliar): 7.4 pounds
pounds per graded size #3 (>6 ounces) ([3]; Trehalose 100 g foliar): 8.4 pounds
pounds Total ([3]; Trehalose 100 g foliar): 17.0 pounds
Reducing sugars in the potato tubers ([4]; 100 grams per acre foliar, 4 weeks before harvest): decreased
Reducing Sugar Content of Tubers (absorbance at 570 nm) ([4]; 2 weeks before Harvest, control 0.200 ± 0.08): 0.211 ± 0.12 absorbance at 570 nm
Reducing Sugar Content of Tubers (absorbance at 570 nm) ([4]; 4 weeks before Harvest, control 0.217 ± 0.15): 0.125 ± 0.03 absorbance at 570 nm
Reducing sugar content of potato tubers [5]: decrease in reducing sugar content
Percent SLM ([6]; 300 g/a Foliar, 2 weeks before harvest, control 1.85): 1.22%
Percent Sugar ([6]; 300 g/a Foliar, 2 weeks before harvest, control 15.83%): 17.23%
Sugar Beet yield (tons per acre) ([6]; 300 g/a Foliar, 2 weeks before harvest, control 27.79): 28.4 tons per acre
Pounds of Sugar per acre ([6]; 300 g/a Foliar, 2 weeks before harvest, control 8797): 9770 Pounds of Sugar per acre
Extra sugar per acre transferred to the beets ([6]; 300 grams per acre foliar): nearly half an extra ton of sugar per acre
% SLM ([6]; 300 grams per acre, 2 weeks before harvest): decided reduction
increase in lb of sugar per acre from sugar cane ([7]; 450 g/a Foliar, control 0): 897 lb
extra sugar from sugar cane production ([7]; 450 grams per acre): 897 pounds
increase in yield of winter wheat [8]: 9.5%, highly significant
